Earlier results in patent publication US20240180842A1, “COLON TARGETED DRUG DELIVERY” (Axial Therapeutics, Inc., priority 2022, published 2024).

Tested on: ASD individuals with high irritability (ABC-I≥18)
Conditions: phase 3 study, drug arms; placebo arm 34.7%

O=C1CCc2ccc(OCCCCN3CCN(c4cccc(Cl)c4Cl)CC3)cc2N1 [aripiprazole]
response rate (25% improvement in ABC-I scores and CGI-I≤2): 49-56%
